Data as given in ChEMBL document CHEMBL4371047, “Effect of α-Methoxy Substitution on the Anti-HIV Activity of Dihydropyrimidin-4(3 H)-ones” (J Med Chem, 2019).

Experiments:
[1] = tested on: Human immunodeficiency virus type 1 reverse transcriptase (Human immunodeficiency virus 1), Q72547 [Y181I]
[2] = tested on: Human immunodeficiency virus 1; experiment: Resistance index, ratio of ID50 for recombinant HIV-1 His-tagged reverse transcriptase p66/p51 L100I mutant to ID50 for recombinant wild type HIV-1 reverse transcriptase His-tagged p66/p51
[3] = tested on: Human immunodeficiency virus 1; experiment: Resistance index, ratio of EC50 for HIV-1 harboring reverse transcriptase Y188L mutant to EC50 for wild type HIV-1 NL4-3; format: functional
[4] = tested on: Human immunodeficiency virus 1; experiment: Resistance index, ratio of ID50 for recombinant HIV-1 His-tagged reverse transcriptase p66/p51 Y181I mutant to ID50 for recombinant wild type HIV-1 reverse transcriptase His-tagged p66/p51
[5] = tested on: Human immunodeficiency virus 1; experiment: Antiviral activity against HIV 1 harboring reverse transcriptase Y181C mutant infected in human MT4 cells assessed as inhibition of virus-induced cytopathic effect after 5 days by MTT assay; format: functional, organism-based; conditions: Human immunodeficiency virus 1, MT4, 120 h
[6] = target: Human immunodeficiency virus type 1 reverse transcriptase (Human immunodeficiency virus 1) (UniProt Q72547)
Description: Inhibition of recombinant wild type HIV-1 His-tagged reverse transcriptase p66/p51 expressed in Escherichia coli assessed as reduction in [3H]dTTP incorporation using poly(rA)/oligo(dT) as template/primer after 20 mins by scintillation counting analysis

[7] = tested on: Human immunodeficiency virus 1; experiment: Resistance index, ratio of ID50 for recombinant HIV-1 His-tagged reverse transcriptase p66/p51 K103N mutant to ID50 for recombinant wild type HIV-1 reverse transcriptase His-tagged p66/p51
[8] = tested on: Human immunodeficiency virus 1; experiment: Resistance index, ratio of EC50 for HIV-1 harboring reverse transcriptase Y181C mutant to EC50 for wild type HIV-1 NL4-3; format: functional
[9] = tested on: Human immunodeficiency virus 1; experiment: Antiviral activity against HIV-1 harboring reverse transcriptase Y188L mutant infected in human MT4 cells assessed as inhibition of virus-induced cytopathic effect after 5 days by MTT assay; format: functional, organism-based; conditions: Human immunodeficiency virus 1, MT4, 120 h
[10] = tested on: Human immunodeficiency virus 1; experiment: Antiviral activity against wild type HIV 1 NL4-3 infected in human MT4 cells assessed as inhibition of virus-induced cytopathic effect after 5 days by MTT assay; format: functional, organism-based; conditions: Human immunodeficiency virus 1, NL4-3, MT4, 120 h
[11] = tested on: Human immunodeficiency virus type 1 reverse transcriptase (Human immunodeficiency virus 1), Q72547 [L100I]
[12] = Cytotoxicity against human MT4 cells assessed as reduction in cell viability after 5 days by MTT assay; format: cell-based
[13] = tested on: Human immunodeficiency virus 1; experiment: Antiviral activity against HIV-1 harboring reverse transcriptase K103N mutant infected in human MT4 cells assessed as inhibition of virus-induced cytopathic effect after 5 days by MTT assay; format: functional, organism-based; conditions: Human immunodeficiency virus 1, MT4, 120 h
[14] = tested on: Human immunodeficiency virus 1; experiment: Resistance index, ratio of EC50 for HIV-1 harboring reverse transcriptase K103N mutant to EC50 for wild type HIV-1 NL4-3; format: functional
[15] = tested on: Human immunodeficiency virus type 1 reverse transcriptase (Human immunodeficiency virus 1), Q72547 [K103N]
Description: Inhibition of recombinant HIV-1 His-tagged reverse transcriptase p66/p51 K103N mutant expressed in Escherichia coli assessed as reduction in [3H]dTTP incorporation using poly(rA)/oligo(dT) as template/primer after 20 mins by scintillation counting analysis

[16] = Therapeutic index, ratio of CC50 for human MT4 cells to EC50 for HIV-1 NL4-3 infected in human MT4 cells; format: toxicity, cell-based; conditions: read-out: Ratio CC50/EC50

SMILES	ID50 [1] [nM]	Ratio [2]	Ratio EC50 [3]	Ratio [4]	EC50 [5] [nM]	ID50 [6] [nM]	Ratio [7]	Ratio EC50 [8]	EC50 [9] [µM]	EC50 [10] [nM]	ID50 [11] [nM]	CC50 at 120 h [12] [µM]	EC50 [13] [nM]	Ratio EC50 [14]	ID50 [15] [nM]	selectivity ratio [16]
CO[C@@H](c1nc(SC(C)C)[nH]c(=O)c1C)c1c(F)cccc1Cl	1100	200	11	550	0.9	2	17	10	0.001	0.09	400	> 65	0.6	10	35	> 722000
Cc1c([C@H](C)c2c(F)cccc2F)nc(SC2CCCC2)[nH]c1=O	150	18	467	30	11	5	2	37	0.14	0.3	90	55.6	1	3	10	185000
CCC(C)Sc1nc(C(OC)c2c(Cl)cccc2Cl)c(C)c(=O)[nH]1 (stereo unspecified)	> 40000	347	6444		2800	15	247	3111	5.8	0.9	5200	32.8	770	856	3700	36400
CCCN(C)c1nc(C(OC)c2c(F)cccc2F)c(C)c(=O)[nH]1 (stereo unspecified)	1200	40	26	34	180	35	4	20	0.23	5	1400	> 77.8	31		150	> 15600
COC(c1nc(SC2CCCC2)[nH]c(=O)c1C)c1c(Cl)cccc1Cl (stereo unspecified)	> 40000	88	900		4000	95	131	500	7.2	8	8400	29.3	2900	362	12400	3660
Cc1c(C(C)c2c(F)cccc2F)nc(SC(C)C)[nH]c1=O (stereo unspecified)												> 3				> 3000
CCCNc1nc(C(OC)c2c(F)cccc2Cl)c(C)c(=O)[nH]1 (stereo unspecified)	2800		555	43	940	65	8	104	5	9	1700	77.4	150	17	540	8600
COC(c1nc(NC2CCCC2)[nH]c(=O)c1C)c1c(Cl)cccc1Cl (stereo unspecified)	2400	34	540	43	1400	56	10	140	5.4	10	1900	34	840	84	540	3400
CO[C@H](c1nc(SC(C)C)[nH]c(=O)c1C)c1c(F)cccc1Cl	5800	160	75	75	1350	77	12		3.8	35	12300	> 40.5	380		950	> 1160
CCC(c1nc(SC(C)C)[nH]c(=O)c1C)c1c(F)cccc1Cl (stereo unspecified)						6					120	> 3	> 3000		420	> 36
CCCN(C)c1nc(C(OC)c2c(F)cccc2Cl)c(C)c(=O)[nH]1 (stereo unspecified)	1100	36	30	42	98	26		24	0.12	4	950	> 74.1	12	3	288	> 18500
COC(c1nc(SC(C)C)[nH]c(=O)c1C)c1c(Cl)cccc1Cl (stereo unspecified)	> 40000	134	1800		3200	59	158	800	7.2	4	7900	51.7	1900	475	9300	12900
CCCN(C)c1nc([C@H](OC)c2c(Cl)cccc2Cl)c(C)c(=O)[nH]1	340	19	22	42	3	8	2	7	0.009	0.4	150	65	2	5	16	162000
CCC(C)Sc1nc(C(CC)c2c(F)cccc2Cl)c(C)c(=O)[nH]1 (stereo unspecified)						2					120	> 3	> 3000		450	> 56
CCC(c1nc(SC2CCCC2)[nH]c(=O)c1C)c1c(F)cccc1Cl (stereo unspecified)						4					68	> 3	> 3000		340	> 5
COC(c1nc(NC(C)C)[nH]c(=O)c1C)c1c(F)cccc1Cl (stereo unspecified)	3200	17	293	29	1400	110	14	48	8.5	29	1900	> 77.4	620	21	1600	> 2670
COC(c1nc(NC(C)C)[nH]c(=O)c1C)c1c(Cl)cccc1Cl (stereo unspecified)	7800	11	127	23	5800	340	15	60	12.2	96	3800	62.5	3000	31	5200	651
CCCNc1nc(C(OC)c2c(Cl)cccc2Cl)c(C)c(=O)[nH]1 (stereo unspecified)	3700	18	507	31	1700	120	13	113	7.6	15	2200	49.2	210	14	1600	3280
